In PubChem BioAssay AID687022 (Broad Institute, 2013):
Active and inactive are the calls of the source.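 The calls were made as follows: active = Fitted curve of melting temperature shift crosses the 1.0 threshold at or below the sample's highest valid tested concentration; inconclusive = Flat fit with activity 30 to 70, or invalid fit; inactive = Opposite direction, flat within 30, or no crossing.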

Target: Fibroblast growth factor 22 (Homo sapiens) (UniProt Q9HCT0)
Assay: binders of human FGF22 protein, dose response, FGF22 synaptogenesis inhibitor project, biophysical, thermal shift, cherry-pick (AID 687022)
Details: recombinant FGF22 thermal shift, SYPRO orange melting

Chain of Fibroblast growth factor 22 (Homo sapiens) (Q9HCT0 whole entry, looked up): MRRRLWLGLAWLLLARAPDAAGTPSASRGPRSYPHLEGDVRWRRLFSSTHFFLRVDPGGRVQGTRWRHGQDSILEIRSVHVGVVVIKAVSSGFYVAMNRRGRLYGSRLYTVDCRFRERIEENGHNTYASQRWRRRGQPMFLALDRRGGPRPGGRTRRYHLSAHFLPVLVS

Row | Compound | AbsAC1 (concentration giving Tm-shift threshold 1.0)
1 | O=[N+]([O-])c1ccc(Nc2ccccc2)nc1 | 5.31 µM
2 | O=C(NC1CC1)c1cccc(NC(=O)c2cnn(-c3ccccc3)n2)c1 | 11.7 µM
3 | CC(=O)Nc1cccc(NC(=O)c2ccc3[nH]c(C)c(C)c3c2)c1 | 5.11 µM
4 | Cc1ccc(NC(=O)c2sc3ncn(CC(=O)N4CCN(c5ccccn5)CC4)c(=O)c3c2C)cc1F | 10.6 µM
5 | CN(NC1OC(=O)c2ccccc21)c1ncc(C(F)(F)F)cc1Cl (centres undefined) | 29.3 µM
6 | Cc1noc(NC(=O)c2cccc(Cl)c2Cl)c1C#N | 32.7 µM
7 | COc1ccc(-c2ccc([C@H]3[C@H]4CN(C(=O)c5ccc6c(c5)OCO6)CCCCN4[C@H]3CO)cc2)cc1 | 15.9 µM
8 | CC(C)C#Cc1cnc2c(c1)C(=O)N([C@@H](C)CO)C[C@@H](C)[C@H](CN(C)C(=O)c1cnccn1)O2 | > 38 µM (inactive)
9 | COc1cc(/C=N/NC(=O)c2cc3ccccc3[nH]2)ccc1O | 1.49 µM
10 | O=C(N/N=C/c1ccncc1)c1cccc(NC(=O)c2ccc(Cl)cc2)c1 | 9.27 µM
11 | NS(=O)(=O)c1cc(C(=O)NC2CCSc3ccccc32)ccc1Cl (centres undefined) | 9.54 µM
12 | Cc1ccc(NC(=O)Nc2cccnc2)cc1 | 27.1 µM
13 | O=C(NCC1CC1)c1onc(CSc2ccc(F)cc2)c1C(=O)NCC1CC1 | 2.58 µM
14 | O=C(CN1C(=O)NC(Cc2c[nH]c3ccccc23)C1=O)Nc1ccc(Br)cc1F (centres undefined) | 4.93 µM
15 | COc1cc(-c2nc(C)c(C(C)=O)n2O)ccc1OCC(=O)Nc1ccc(Cl)cc1 | 10.9 µM
16 | COc1ccc2nc(NC(=O)CCc3cc(OC)c(OC)c(OC)c3)sc2c1 | 19.3 µM
17 | COC(=O)CN1C(=S)N(c2ccc(F)cc2)C(=O)C1CC(=O)Nc1ccccc1 (centres undefined) | 16.1 µM
18 | O=C(N/N=C/c1c[nH]c2ccccc12)c1cccc(O)c1 | 2.9 µM
19 | NS(=O)(=O)c1cccc(NC(=O)COC(=O)c2cc([N+](=O)[O-])ccc2N2CCCC2)c1 | 5.86 µM
20 | COC(=O)CN1C(=S)N(c2ccc(Cl)cc2)C(=O)C1CC(=O)Nc1ccc(F)cc1 (centres undefined) | 6.03 µM
21 | O=C(N/N=C/c1c(O)ccc2ccccc12)c1[nH]ncc1Br | 23.7 µM

Row | Compound | AbsAC1 (concentration giving Tm-shift threshold 1.0)
22 | CC1CCN(Cc2c(C(=O)N/N=C/c3ccc(OC(C)C)cc3)nnn2-c2nonc2N)CC1 | 14 µM
23 | O=S1(=O)N=C(N(Cc2cccs2)c2ccc(O)cc2)c2ccccc21 | 1.47 µM
24 | CC(=O)Nc1ccc(S(=O)(=O)N(CCc2ccccc2)CC(=O)N/N=C/c2ccc(C(=O)O)cc2)cc1 | 7.42 µM
25 | COc1ccc(S(=O)(=O)N(NC2=NS(=O)(=O)c3ccccc32)C(=O)C(C)C)cc1 | > 38 µM (inactive)
26 | O=[N+]([O-])c1ccc(N/N=C/c2ccc[nH]2)cc1 | 8.39 µM
27 | C[C@@H]1CN([C@@H](C)CO)S(=O)(=O)c2ccc(-c3ccncc3)cc2O[C@@H]1CN(C)C(=O)Nc1ccc(C(F)(F)F)cc1 | 1.96 µM
28 | CCN(CC)S(=O)(=O)c1ccc(N/N=C(\C)c2ccc(OC)cc2O)nc1 | 14 µM
29 | O=C(Cn1cc(COc2ccc(Br)cc2)nn1)c1ccc(O)cc1 | 7.63 µM
30 | CCn1ccnc1CN(C)C(=O)c1ccc2nc(Cc3ccc(OC)cc3)oc2c1 | 11.9 µM
31 | COc1ccc(N(C)S(=O)(=O)c2cccc(C(=O)Nc3ccc(N4CCOCC4)cc3)c2)cc1 | 9 µM
32 | CCc1ccc(N2CC(C(=O)OCC(=O)Nc3ccc(C#N)cc3)CC2=O)cc1 (centres undefined) | 20.8 µM
33 | Cc1cccc(NC(=O)c2ccc(-c3ccccc3[N+](=O)[O-])o2)c1 | > 38 µM (inactive)
34 | Cc1cccc(OC(C)C(=O)Nc2ccc3c(c2)OCCO3)c1 (centres undefined) | 15.1 µM
35 | O=C(N/N=C/c1ccc(O)cc1)c1cccc(N/N=C/c2ccc(O)cc2)c1 | 5.77 µM
36 | CO[C@@H](CN(C)S(=O)(=O)c1cccc(Cl)c1)[C@@H](C)CN([C@@H](C)CO)S(=O)(=O)c1cccc(Cl)c1 | 5.29 µM
37 | Clc1ccc(Nc2ccc(NCc3ccccc3)nn2)cc1 | 2.73 µM
38 | CN1C(=O)c2cc(NC(=O)c3cccc(F)c3)ccc2OC[C@@H]2O[C@H](CC(=O)N3CCc4ccccc4C3)CC[C@@H]21 | 17.2 µM
39 | CCOC(=O)C(c1c(O)c2ccccc2oc1=O)c1c(O)c2ccccc2oc1=O | > 5 µM (inactive)
40 | Nc1ccc(C(=O)N/N=C/c2c[nH]c3ccccc23)cc1 | 3.41 µM
41 | O=C(N/N=C\c1cccnc1)c1cc(-c2ccc(Cl)s2)[nH]n1 | > 38 µM (inactive)
42 | Cc1ccc(CCNc2ncnc(Cl)c2N)cc1 | 6.55 µM

Row | Compound | AbsAC1 (concentration giving Tm-shift threshold 1.0)
43 | COc1cc(OC)cc(C(=O)Nc2ccc(S(=O)(=O)Nc3nc(C)cc(C)n3)cc2)c1 | 15.5 µM
44 | O=C1Nc2cc(Cl)c(Cl)cc2N(O)N1c1ccc(Cl)cc1 | 4.98 µM
45 | C/C(=N\NC(=O)COc1ccc(C)cc1C(C)C)c1cc2ccccc2o1 | 20.9 µM
46 | C[C@@H]1CN([C@@H](C)CO)S(=O)(=O)c2ccc(-c3ccc(F)cc3)cc2O[C@@H]1CN(C)C(=O)Nc1ccccc1F | > 38 µM (inactive)
47 | Cn1c(C(=O)NCCc2c[nH]c3ccccc23)cc2sccc21 | 2.76 µM
48 | CC(C)(C)[S@@](=O)N1Cc2cc(C(=O)NCc3ccccc3F)nc(-c3cccc(-c4ccncc4)c3)c2[C@H]1CCO | > 38 µM (inactive)
49 | O=C(N/N=C/c1c[nH]c2ccc(Br)cc12)c1ccc2c(c1)OCO2 | 14.3 µM
50 | CO[C@@H](CN(C)S(=O)(=O)c1ccc(Cl)cc1)[C@@H](C)CN([C@H](C)CO)S(=O)(=O)c1cccc(Cl)c1 | 10.7 µM
51 | COc1ccccc1NC(=O)c1ccc(NC(=O)c2ccc(=O)[nH]c2)cc1 | 4.02 µM
52 | C/C=C/c1ccc2c(c1)O[C@@H](CN(C)C(=O)Nc1cccc(F)c1)[C@@H](C)CN([C@@H](C)CO)S2(=O)=O | 7.47 µM
53 | Cc1ccsc1C(=O)NNC(=O)c1ccc(NS(=O)(=O)c2cccs2)cc1 | 11.6 µM
54 | CS(=O)(=O)c1ccc2nc(NC(=O)c3ccc(Cl)nc3)sc2c1 | 22.9 µM
55 | O=C(Nc1ccc(C(=O)O)cc1)Nc1ccc([N+](=O)[O-])cc1 | 5.57 µM
56 | COc1cc(/C=N/NC(=O)c2[nH]nc3c2CCc2ccccc2-3)ccc1O | 6.1 µM
57 | O=C(N/N=C/c1ccc(C(F)(F)F)cc1)c1ccc(O)cc1 | 2.48 µM
58 | CCC(=O)Nc1nc(C)c(-c2csc(Nc3ccccn3)n2)s1 | 4.91 µM
59 | COc1cccc(S(=O)(=O)N2C[C@@H](O)COC[C@@H]3O[C@@H](CC(=O)Nc4ccccc4)CC[C@H]32)c1 | 3.38 µM
60 | CCOc1ccc(-c2cc(C(=O)N/N=C/c3cccnc3)c3ccccc3n2)cc1 | 13 µM
61 | COc1cc(NC(=O)c2cnc(N)s2)cc(C(=O)Nc2cccc(C(F)(F)F)c2)c1 | 2.42 µM
62 | O=C(Nc1ccc(S(=O)(=O)N2CCOCC2)cc1)c1ccc(F)cc1 | 12.7 µM
63 | O=S(=O)(O)c1cccc2cccc(Nc3ccccc3)c12 | 9.29 µM

Row | Compound | AbsAC1 (concentration giving Tm-shift threshold 1.0)
64 | CSc1ccc(/C=N/NC(=O)c2ccc3nc[nH]c3c2)cc1 | 1.58 µM
65 | CCc1nnc(NS(=O)(=O)c2ccc(NC(=S)NC(=O)/C=C/c3ccc([N+](=O)[O-])cc3)cc2)s1 | 4.73 µM
66 | C[C@@H]1CN([C@H](C)CO)C(=O)c2cc(NC(=O)Nc3ccc(C(F)(F)F)cc3)ccc2O[C@@H]1CN(C)Cc1ccc(C(=O)O)cc1 | 11.5 µM
67 | Cn1ncc2c(Nc3ccc(Cl)c(Cl)c3)ncnc21 | 24.9 µM
68 | O=S(=O)(Nc1nnc(C(F)(F)F)s1)c1ccc(Cl)cc1 | 3.42 µM
69 | O=C(N/N=C/c1ccc([N+](=O)[O-])cc1)c1c[nH]c2ccccc12 | 20 µM
70 | O=C(COc1ccc([N+](=O)[O-])cc1)Nc1cccc(C(=O)Nc2ccccc2C(=O)O)c1 | 3.74 µM
71 | O=c1ccc2nc3ccccc3sc-2c1 | 8.27 µM
72 | COc1ccccc1-c1ccc2c(c1)O[C@@H](CN(C)C(=O)Nc1cccc(F)c1)[C@H](C)CN([C@@H](C)CO)S2(=O)=O | 20.6 µM
73 | O=C(C[C@@H]1CC[C@@H]2[C@H](COC[C@@H](O)CN2S(=O)(=O)c2cccc(F)c2)O1)Nc1ccc(-c2ccccc2)cc1 | 22.3 µM
74 | CC1(C)CCC(=O)N2CC[C@H]3C[C@H](OC(=O)Nc4ccccc4)C[C@@H]1[C@H]32 | 12 µM
75 | O=[N+]([O-])c1ccc(Nc2cccc(F)c2)nc1 | 3.78 µM
76 | O=C(N/N=C/c1c[nH]c2ccccc12)C1CC1c1ccccc1 (centres undefined) | 14 µM
77 | O=C(Nc1nc(=O)n(C(=O)C2CC2)s1)c1ccccc1 | 20.7 µM
78 | O=C(O)c1ccc(NC(=O)c2cccc(S(=O)(=O)Nc3ccc(C(=O)O)cc3)c2)cc1 | > 5 µM (inactive)
79 | O=C(Nc1cc(Cl)cc(Cl)c1)N[C@@H]1CC[C@@H](CCNS(=O)(=O)c2cccc(F)c2)O[C@H]1CO | 5.67 µM
80 | CCOc1cccc(C(=O)Nc2ccc3[nH]ncc3c2)c1 | 3.89 µM
81 | O=C(N/N=C/c1cccc(Oc2ccccc2)c1)c1cccc(O)c1 | 3.12 µM
82 | CCN(CC)c1ccc(/C=N/NC(=O)c2c[nH]c3ccccc23)cc1 | 26.8 µM
83 | O=C(O)c1ccccc1Nc1ccc([N+](=O)[O-])cc1 | 16.2 µM
84 | NC(=O)c1ccsc1NC(=O)COC(=O)CCCOc1ccccc1 | 5.37 µM
